Data set [1] can be described thus: physchem. The data set is classed as physicochemical. The settings on record: for remaining at 192 h: solid. The procedure: The storage stability of the present compounds [I] was tested by allowing each test compound to stand under severe conditions (i.e., a temperature of 60° C. and a relative humidity of 75%) for 8 days and then determining its percentage of residue according to a thin-layer densitometric method (Bunseki Kagaku, Vol. 23, No. 9, p. 1016, 1974). More specifically, upon completion of the severe treatment, 100 μg of each test compound was applied to a thin-layer plate and this plate was developed with a chloroform-ethanol mixture (volume ratio 10:1). The thin-layer plate used for this purpose was a TLC Plate Aluminum Oxide 60F254 (manufactured by Merck Co.; 0.25 mm in thickness and 20 cm×20 cm in size), and it was developed over a distance of 15 cm. Then, using a Shimazu Two-wavelength Chromatoscanner CS-910 (manufactured by Shimazu Seisakusho), the resulting spot was analyzed at a wavelength of 300-315 nm.
For purposes of comparison, the percentages of residue of Omeprazole (at a measuring wavelength of 300 nm) and Compounds α and β (at a measuring wavelength of 310 nm) were determined in the same manner as described above and are also shown in Table 1.

Data set [2] deals with T1, (H^+ +K^+) ATPase (Sus scrofa, UniProt P19156).
T1 construct: prepared from fresh pieces of the fundus ventriculi of hog stomach; from tissue; host or cells: hog stomach, fundus ventriculi (fresh pieces), prepared by the method of Saccomani et al., J. Biol. Chem. 1976
T1 sequence (P19156 2-1034 limits assumed): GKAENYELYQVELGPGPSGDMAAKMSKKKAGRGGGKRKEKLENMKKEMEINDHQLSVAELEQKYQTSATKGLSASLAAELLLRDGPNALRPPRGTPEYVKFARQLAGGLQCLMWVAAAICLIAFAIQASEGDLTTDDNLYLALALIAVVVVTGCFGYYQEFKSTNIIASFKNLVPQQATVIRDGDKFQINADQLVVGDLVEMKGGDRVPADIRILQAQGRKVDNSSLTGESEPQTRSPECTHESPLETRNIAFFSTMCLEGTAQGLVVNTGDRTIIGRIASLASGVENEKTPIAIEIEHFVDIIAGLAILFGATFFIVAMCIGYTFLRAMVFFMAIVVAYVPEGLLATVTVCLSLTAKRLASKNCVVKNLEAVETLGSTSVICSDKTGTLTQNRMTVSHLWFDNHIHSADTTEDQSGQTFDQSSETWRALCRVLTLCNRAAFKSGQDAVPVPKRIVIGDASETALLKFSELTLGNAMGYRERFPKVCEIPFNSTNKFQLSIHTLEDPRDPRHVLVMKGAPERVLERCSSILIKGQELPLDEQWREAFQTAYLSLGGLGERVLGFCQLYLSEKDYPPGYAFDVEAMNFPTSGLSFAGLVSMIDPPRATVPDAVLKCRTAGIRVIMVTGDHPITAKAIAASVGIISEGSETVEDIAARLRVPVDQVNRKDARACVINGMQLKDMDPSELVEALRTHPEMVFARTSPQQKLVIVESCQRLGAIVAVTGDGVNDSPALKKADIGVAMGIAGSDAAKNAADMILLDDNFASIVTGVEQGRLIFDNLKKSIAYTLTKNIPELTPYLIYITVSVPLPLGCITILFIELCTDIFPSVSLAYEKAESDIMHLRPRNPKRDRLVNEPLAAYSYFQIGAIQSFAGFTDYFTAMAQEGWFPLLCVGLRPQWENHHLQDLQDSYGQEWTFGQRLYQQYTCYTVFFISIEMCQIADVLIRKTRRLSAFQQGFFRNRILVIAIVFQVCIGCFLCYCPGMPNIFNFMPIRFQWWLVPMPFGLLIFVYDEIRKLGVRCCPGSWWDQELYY
T1 sequence (P18434 whole entry partner): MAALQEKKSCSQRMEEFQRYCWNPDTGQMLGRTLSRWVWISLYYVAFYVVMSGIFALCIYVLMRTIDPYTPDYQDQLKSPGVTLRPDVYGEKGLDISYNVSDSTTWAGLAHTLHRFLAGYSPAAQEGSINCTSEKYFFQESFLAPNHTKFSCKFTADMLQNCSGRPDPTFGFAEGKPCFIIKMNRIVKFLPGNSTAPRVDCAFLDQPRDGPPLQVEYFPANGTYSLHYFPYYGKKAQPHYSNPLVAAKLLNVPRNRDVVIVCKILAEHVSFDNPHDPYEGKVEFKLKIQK
Kind of data set: Inhibitory effect on (H^+ +K^+) ATPase. Conditions: in vitro; for inhibition at 1000 µM: at 1 × 10^-3 M, read-out: Degree of inhibition, Inhibitory effect on (H^+ + K^+) ATPase. The data set is classed as biochemical, hog. The method, then: The inhibitory effect of the present compounds [I] on (H^+ +K^+) ATPase was tested by adding each test compound to a solution containing 300-500 μg, on a protein basis, of the enzyme, incubating this reaction mixture at 35°-37° C. for 5-30 minutes, and then determining the residual activity of (H^+ +K^+) ATPase present in the reaction mixture. The test compounds were dissolved in methanol or ethanol in advance and added to the reaction system in such an amount as to give a concentration of 1×10^-3 M. The (H^+ +K^+) ATPase used in this test was prepared from fresh pieces of the fundus ventriculi of hog stomach according to the method of Saccomani et al. (The Journal of Biological Chemistry, Vol. 251, No. 23, p. 7690, 1976). The residual activity of (H^+ +K^+) ATPase was determined by mixing magnesium chloride and potassium chloride with the incubated reaction mixture, adding adenosine triphosphate thereto, incubating this assay mixture 37° C. for 5-15 minutes to effect an enzymic reaction, and colorimetrically determining the liberated inorganic phosphate by use of an ammonium molybdate reagent. The initial concentrations of magnesium chloride, potassium chloride and adenosine triphosphate were adjusted to 2 mM, 20 mM and 2 mM, respectively. Colorimetric determinations were made at a wavelength of 360-400 nm. As a control experiment, the residual activity of (H^+ +K^+) ATPase was determined by repeating the above-described procedure without adding any test compound to the reaction system. In this table, the inhibitory effect is indicated by the degree of inhibition which was obtained by calculating the difference between the measured value obtained in the control experiment and the measured value resulting from the addition of each test compound and expressing this difference as a percentage of the measured value obtained in the control experiment. For purposes of comparison, the inhibitory effect of Omeprazole and Compounds α and β on (H^+ +K^+) ATPase was tested in the same manner as described above and the results thus obtained are also shown in Table 2.

In data set [3] the test system is gastric acid secretion. Briefly: Inhibitory effect on gastric acid secretion (pylorus ligation). The data set is classed as in vivo, male Wistar rats. The settings on record: for ED50: Rattus norvegicus, po, rats, total acidity of gastric juice 4 hours after pylorus ligation; for inhibitory effect on gastric acid secretion (in words): in vivo. The method, then:
The inhibitory effect of the present compounds [I] on gastric acid secretion was tested by using male Wistar rats, weighing about 200 g, in groups of five. To these rats which had been fasted overnight, the test compounds were orally administered in a series of appropriately selected doses ranging from 1 to 100 mg/kg. Then, the pyloric end of the stomach was ligated. After the lapse of 4 hours, the total acidity of gastric juice of each rat was measured. More specifically, the test compounds were suspended in a 0.5% aqueous solution of carboxymethyl cellulose and administered to the rats 30 minutes before ligation. Gastric juice was collected by sacrificing and laparotomizing each rat. The total acidity of gastric juice was determined by titrating the gastric juice with a 0.1 N aqueous solution of sodium hydroxide until a pH of 7.0 was reached. As a control experiment, the total acidity of gastric juice of an untreated group was determined in the same manner as described above. The inhibitory effect of the test compounds on gastric acid secretion was evaluated on the basis of the dose (in mg/kg) required to inhibit gastric acid secretion, i.e. the total acidity of gastric juice, by 50% (hereinafter referred to as ED50). The ED50 value of each test compound was determined by calculating the difference in total acidity between the untreated group and each treated group, dividing the difference by the total acidity of the untreated group to obtain the degree of inhibition, and constructing a dose-response curve on the basis of the data thus obtained. For purposes of comparison, the ED50 values of Omeprazole and Compounds α and β were determined in the same manner as described above and are also shown in Table 3.

For data set [4], the system named is Aspirin ulcer. Briefly: Inhibitory effect on aspirin ulcer. The settings on record: Rattus norvegicus; oral, rats; 30 minutes before ligation; aspirin 150 mg/kg; 7 hours; read-out: Inhibitory effect on Aspirin ulcer, ID50. The data set is classed as in vivo, male Wistar rats. The procedure:
The inhibitory effects of the present compounds [I] on various experimental ulcers were tested by using male Wistar rats, weighing about 200 g, in groups of six and determining the respective ulceration indexes for 5 types of experimental ulcers. In each test, the test compounds were suspended in a 0.5% aqueous solution of carboxymethyl cellulose and administered orally in a series of appropriately selected doses ranging from 1 to 100 mg/kg. The test procedures for 5 types of experimental ulcers were as follows:
In rats which had been fasted for 24 hours, the pyloric end of the stomach was ligated. After 5 minutes, aspirin was orally administered thereto in a dose of 150 mg/kg. Seven hours after ligation, each rat was sacrificed and the length of the ulcer(s) formed in the glandular stomach part was measured. The ulceration index was calculated on the basis of the data thus obtained. The test compounds were administered 30 minutes before ligation.
The pharmacological effect of the test compounds on each of the aforesaid experimental ulcers was evaluated on the basis of the dose (in mg/kg) required to inhibit the formation of ulcers by 50% (hereinafter referred to as ID50). The ID50 value of each test compound was determined by calculating the difference in ulceration index between the untreated group and each treated group, dividing the difference by the ulceration index of the untreated group to obtain the degree of inhibition, and constructing a dose-response curve on the basis of the data thus obtained. For purposes of comparison, the ID50 values of Omeprazole and Compounds α and β were determined in the same manner as described above and are also shown in Table 4.

Where two headings read alike, the source gives them in different places.

Turning to `CCOc1ccc2[nH]c([S+]([O-])Cc3ncc(C)c(C)c3C)nc2n1` (stereo not shown) [Example 8, 2-[2-(3,4,5-Trimethyl)pyridylmethylsulfinyl]-5-ethoxyimidazo[4,5-b]pyridine], the remaining at 192 h in data set [1] (75% rh) came to 96%. Also, the inhibition at 1000 µM in data set [2] was 100%. Further, the results for the ED50 in data set [3] and in data set [4] were 12 mg/kg and 10.7 mg/kg, respectively.

Consider `COc1c(C)cnc(C[S+]([O-])c2nc3ncc(C)cc3[nH]2)c1C` (stereo not drawn) [Compound β, 2-[2-(3,5-dimethyl-4-methoxy)pyridylmethylsulfinyl]-6-methylimidazo[4,5-b]-pyridine, reference compound], for which the “storage stability (in words)” value in data set [1] was “defective in storage stability”. In addition, the remaining at 192 h in data set [1] (75% rh) stood at 9%. For the same compound, in data set [2], the inhibition at 1000 µM was found to be 100% and the “inhibitory effect on (H^+ +K^+) ATPase (in words)” value is on record as “marked inhibitor effect”. Further, in data set [3], the ED50 was 41 mg/kg and the “inhibitory effect on gastric acid secretion (in words)” value is given as “not satisfactorily reflected in the in vivo tests”. Further, the ED50 in data set [4] amounted to 23.8 mg/kg.

Consider `COc1c(C)cnc(C[S+]([O-])c2nc3nc(OCC4CC4)ccc3[nH]2)c1C` (stereo not shown) [Example 24, 2-[2-(3,5-Dimethyl-4-methoxy)pyridylmethylsulfinyl]-5-cyclopropylmethyloxyimidazo[4,5-b]pyridine], for which the remaining at 192 h in data set [1] (75% rh) is 94%. Besides, the inhibition at 1000 µM in data set [2] was found to be 100%. The ED50 in data set [3] amounted to 9 mg/kg; in data set [4], 5.4 mg/kg.

In data set [1] (75% rh), `COc1ccc2[nH]c([S+]([O-])Cc3ncc(C)cc3C)nc2n1` (stereo not shown) [Example 1, 2-[2-(3,5-Dimethyl)pyridylmethylsulfinyl]-5-methoxyimidazo[4,5-b]pyridine] gave a remaining at 192 h of 98%. Moreover, in data set [2], the inhibition at 1000 µM amounted to 100%. The results for the ED50 in data set [3] and in data set [4] were 13 mg/kg and 6.3 mg/kg, respectively.

As for `CCCCCCCOc1ccc2[nH]c([S+]([O-])Cc3ncc(C)cc3C)nc2n1` (stereo not shown) [Example 33, 2-[2-(3,5-Dimethyl)pyridylmethylsulfinyl]-5-n-heptyloxyimidazo[4,5-b]pyridine], the remaining at 192 h in data set [1] (75% rh) was determined as 89%. Besides, the inhibition at 1000 µM in data set [2] amounted to 95.4%. The results for the ED50 in data set [3] and in data set [4] were 17 mg/kg and 12.6 mg/kg, respectively.

The compound `COc1c(C)cnc(C[S+]([O-])c2nc3nc(OCC(F)(F)F)ccc3[nH]2)c1C` (stereo not shown) [Example 26, 2-[2-(3,5-Dimethyl-4-methoxy)pyridylmethylsulfinyl]-5-(2,2,2-trifluoroethoxy)imidazo[4,5-b]pyridine] registered a remaining at 192 h in data set [1] (75% rh) of 92%. Moreover, the inhibition at 1000 µM in data set [2] was determined as 100%. In addition, the ED50 in data set [3] was determined as 15 mg/kg; in data set [4], 9.5 mg/kg.

In turn, `COc1cc(C[S+]([O-])c2nc3nc(OCC4CC4)ccc3[nH]2)ncc1C` (stereo not shown) [Example 13, 2-[2-(4-Methoxy-5-methyl)pyridylmethylsulfinyl]-5-cyclopropylmethyloxyimidazo[4,5-b]pyridine] displayed a remaining at 192 h in data set [1] (75% rh) of 88%. The inhibition at 1000 µM in data set [2] stood at 87.4%. For the same compound, the figures for the ED50 in data set [3] and in data set [4] were 18 mg/kg and 14.5 mg/kg, respectively.

With `COc1ccc2[nH]c([S+]([O-])Cc3ncc(C)c(OC)c3C)nc2c1` (stereo not shown) [Omeprazole, reference compound], the “storage stability (in words)” value in data set [1] is recorded as “undergoes a higher degree of deterioration than might be expected”. Moreover, the remaining at 192 h in data set [1] (after treatment at 60° C. and 75% RH for 8 days, read-out: Storage stability, Percentage of residue) is 3%. Besides, the inhibition at 1000 µM in data set [2] came out at 38.7%. In addition, the ED50 in data set [3] worked out at 35 mg/kg; in data set [4], 17.2 mg/kg.

For `COc1c(C)cnc(C[S+]([O-])c2nc3ncc(Br)cc3[nH]2)c1C` (stereo not drawn) [Compound α, 2-[2-(3,5-dimethyl-4-methoxy)pyridylmethylsulfinyl]-6-bromoimidazo[4,5-b]pyridine, reference compound], in data set [1], the “storage stability (in words)” value is reported as “defective in storage stability”. Besides, the remaining at 192 h in data set [1] (75% rh) came out at 0%. Further, in data set [2], the inhibition at 1000 µM came out at 100% and the “inhibitory effect on (H^+ +K^+) ATPase (in words)” value is listed as “marked inhibitor effect”. In data set [3], the ED50 is 73 mg/kg and the “inhibitory effect on gastric acid secretion (in words)” value was “not satisfactorily reflected in the in vivo tests”. For the same compound, in data set [4], the ED50 is no less than 100 mg/kg.

For the origin of these results see patent US4808596A, “Imidazo[4,5-b]pyridine compounds and pharmaceutical compositions containing same” (Tokyo Tanabe Company, Ltd., priority 1986, dated 1989).
